Measurements: PMC5933747 (PLoS ONE, 2018)
Where “and” joins values, the source holds several entries; their conditions need not be identical. Identical values can stand only once.

Tests used:
[1] = test system: mechanically-induced C-fiber action potential firing; settings: mouse skin-nerve preparation; cited from earlier work
[2] = biological target: T1, human NaV1.4 (Homo sapiens, UniProt P35499); assay: PatchXpress (PX) automated electrophysiology, human NaV1.4; type: cell-based; settings: for IC50: PX platform, at least ten cells, two to three data points per concentration
T1 sequence (P35499 whole entry): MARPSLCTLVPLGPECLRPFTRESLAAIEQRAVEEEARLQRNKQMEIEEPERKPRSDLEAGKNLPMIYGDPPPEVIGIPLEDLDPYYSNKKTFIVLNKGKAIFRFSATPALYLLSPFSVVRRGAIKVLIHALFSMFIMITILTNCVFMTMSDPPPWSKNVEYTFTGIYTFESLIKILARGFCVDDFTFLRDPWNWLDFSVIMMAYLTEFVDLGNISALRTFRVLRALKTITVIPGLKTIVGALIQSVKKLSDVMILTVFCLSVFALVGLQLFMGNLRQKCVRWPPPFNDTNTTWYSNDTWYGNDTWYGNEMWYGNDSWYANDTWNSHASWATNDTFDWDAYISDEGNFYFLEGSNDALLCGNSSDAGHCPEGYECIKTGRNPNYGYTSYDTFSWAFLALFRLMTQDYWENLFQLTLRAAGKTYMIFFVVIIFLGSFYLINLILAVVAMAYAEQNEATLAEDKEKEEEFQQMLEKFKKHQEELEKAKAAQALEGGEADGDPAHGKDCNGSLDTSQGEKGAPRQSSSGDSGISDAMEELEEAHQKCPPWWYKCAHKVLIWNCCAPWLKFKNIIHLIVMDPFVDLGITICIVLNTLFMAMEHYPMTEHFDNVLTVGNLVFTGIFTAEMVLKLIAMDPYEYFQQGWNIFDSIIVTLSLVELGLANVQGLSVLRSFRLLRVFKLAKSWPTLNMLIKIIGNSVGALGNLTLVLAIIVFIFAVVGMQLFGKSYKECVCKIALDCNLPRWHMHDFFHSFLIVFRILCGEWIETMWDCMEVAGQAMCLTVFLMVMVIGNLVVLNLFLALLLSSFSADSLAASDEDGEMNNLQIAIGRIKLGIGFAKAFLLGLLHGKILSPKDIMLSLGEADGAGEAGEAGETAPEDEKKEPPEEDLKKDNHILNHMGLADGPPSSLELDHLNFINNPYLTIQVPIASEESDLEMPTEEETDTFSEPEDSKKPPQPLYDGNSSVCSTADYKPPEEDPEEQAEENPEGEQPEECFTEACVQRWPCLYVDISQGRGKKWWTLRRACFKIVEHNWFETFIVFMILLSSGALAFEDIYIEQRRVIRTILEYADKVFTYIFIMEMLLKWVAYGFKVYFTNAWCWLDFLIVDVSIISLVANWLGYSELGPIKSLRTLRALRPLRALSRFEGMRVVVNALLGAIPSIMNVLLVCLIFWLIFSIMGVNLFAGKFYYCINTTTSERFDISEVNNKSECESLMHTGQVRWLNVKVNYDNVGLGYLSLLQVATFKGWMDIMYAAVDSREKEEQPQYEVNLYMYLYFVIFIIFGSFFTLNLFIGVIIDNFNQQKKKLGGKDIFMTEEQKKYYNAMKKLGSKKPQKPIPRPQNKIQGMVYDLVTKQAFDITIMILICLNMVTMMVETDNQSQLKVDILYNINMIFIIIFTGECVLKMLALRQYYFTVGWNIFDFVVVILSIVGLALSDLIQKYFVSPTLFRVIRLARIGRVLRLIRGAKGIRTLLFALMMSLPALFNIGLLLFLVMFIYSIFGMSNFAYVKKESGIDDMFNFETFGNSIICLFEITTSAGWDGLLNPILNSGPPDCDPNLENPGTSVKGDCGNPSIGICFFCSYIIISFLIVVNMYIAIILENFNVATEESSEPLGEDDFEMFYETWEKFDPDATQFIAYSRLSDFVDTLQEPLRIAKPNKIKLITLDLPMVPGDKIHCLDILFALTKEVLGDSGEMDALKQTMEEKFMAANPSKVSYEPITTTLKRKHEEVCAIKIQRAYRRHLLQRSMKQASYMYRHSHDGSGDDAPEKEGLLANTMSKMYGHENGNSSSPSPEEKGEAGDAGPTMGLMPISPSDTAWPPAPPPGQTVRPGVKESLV
Protocol: (§1) Human NaV (hNaV) stably transfected cell lines in HEK293 or CHO backgrounds and cell culture methods were as previously described. hNaV1.1-hNaV1.7 cells were obtained from Eurofins Pharma Discovery Services (St. Charles, MO), and hNaV1.8 cells were generated in house. Whole cell patch clamp, PatchXpress, and IWQ electrophysiology voltage protocols as well as DRG neuron isolation were carried out as previously described. NaV1.7-NaV1.5 chimeras were generated and evaluated in BacMam transduced U2-OS cells on the IWQ platform as previously described.

[3] = biological target: T2, human NaV1.5 (Homo sapiens, UniProt Q14524); assay: PatchXpress (PX) automated electrophysiology, human NaV1.5; type: cell-based; settings: for IC50: PX platform, at least ten cells, two to three data points per concentration
T2 sequence (Q14524 whole entry): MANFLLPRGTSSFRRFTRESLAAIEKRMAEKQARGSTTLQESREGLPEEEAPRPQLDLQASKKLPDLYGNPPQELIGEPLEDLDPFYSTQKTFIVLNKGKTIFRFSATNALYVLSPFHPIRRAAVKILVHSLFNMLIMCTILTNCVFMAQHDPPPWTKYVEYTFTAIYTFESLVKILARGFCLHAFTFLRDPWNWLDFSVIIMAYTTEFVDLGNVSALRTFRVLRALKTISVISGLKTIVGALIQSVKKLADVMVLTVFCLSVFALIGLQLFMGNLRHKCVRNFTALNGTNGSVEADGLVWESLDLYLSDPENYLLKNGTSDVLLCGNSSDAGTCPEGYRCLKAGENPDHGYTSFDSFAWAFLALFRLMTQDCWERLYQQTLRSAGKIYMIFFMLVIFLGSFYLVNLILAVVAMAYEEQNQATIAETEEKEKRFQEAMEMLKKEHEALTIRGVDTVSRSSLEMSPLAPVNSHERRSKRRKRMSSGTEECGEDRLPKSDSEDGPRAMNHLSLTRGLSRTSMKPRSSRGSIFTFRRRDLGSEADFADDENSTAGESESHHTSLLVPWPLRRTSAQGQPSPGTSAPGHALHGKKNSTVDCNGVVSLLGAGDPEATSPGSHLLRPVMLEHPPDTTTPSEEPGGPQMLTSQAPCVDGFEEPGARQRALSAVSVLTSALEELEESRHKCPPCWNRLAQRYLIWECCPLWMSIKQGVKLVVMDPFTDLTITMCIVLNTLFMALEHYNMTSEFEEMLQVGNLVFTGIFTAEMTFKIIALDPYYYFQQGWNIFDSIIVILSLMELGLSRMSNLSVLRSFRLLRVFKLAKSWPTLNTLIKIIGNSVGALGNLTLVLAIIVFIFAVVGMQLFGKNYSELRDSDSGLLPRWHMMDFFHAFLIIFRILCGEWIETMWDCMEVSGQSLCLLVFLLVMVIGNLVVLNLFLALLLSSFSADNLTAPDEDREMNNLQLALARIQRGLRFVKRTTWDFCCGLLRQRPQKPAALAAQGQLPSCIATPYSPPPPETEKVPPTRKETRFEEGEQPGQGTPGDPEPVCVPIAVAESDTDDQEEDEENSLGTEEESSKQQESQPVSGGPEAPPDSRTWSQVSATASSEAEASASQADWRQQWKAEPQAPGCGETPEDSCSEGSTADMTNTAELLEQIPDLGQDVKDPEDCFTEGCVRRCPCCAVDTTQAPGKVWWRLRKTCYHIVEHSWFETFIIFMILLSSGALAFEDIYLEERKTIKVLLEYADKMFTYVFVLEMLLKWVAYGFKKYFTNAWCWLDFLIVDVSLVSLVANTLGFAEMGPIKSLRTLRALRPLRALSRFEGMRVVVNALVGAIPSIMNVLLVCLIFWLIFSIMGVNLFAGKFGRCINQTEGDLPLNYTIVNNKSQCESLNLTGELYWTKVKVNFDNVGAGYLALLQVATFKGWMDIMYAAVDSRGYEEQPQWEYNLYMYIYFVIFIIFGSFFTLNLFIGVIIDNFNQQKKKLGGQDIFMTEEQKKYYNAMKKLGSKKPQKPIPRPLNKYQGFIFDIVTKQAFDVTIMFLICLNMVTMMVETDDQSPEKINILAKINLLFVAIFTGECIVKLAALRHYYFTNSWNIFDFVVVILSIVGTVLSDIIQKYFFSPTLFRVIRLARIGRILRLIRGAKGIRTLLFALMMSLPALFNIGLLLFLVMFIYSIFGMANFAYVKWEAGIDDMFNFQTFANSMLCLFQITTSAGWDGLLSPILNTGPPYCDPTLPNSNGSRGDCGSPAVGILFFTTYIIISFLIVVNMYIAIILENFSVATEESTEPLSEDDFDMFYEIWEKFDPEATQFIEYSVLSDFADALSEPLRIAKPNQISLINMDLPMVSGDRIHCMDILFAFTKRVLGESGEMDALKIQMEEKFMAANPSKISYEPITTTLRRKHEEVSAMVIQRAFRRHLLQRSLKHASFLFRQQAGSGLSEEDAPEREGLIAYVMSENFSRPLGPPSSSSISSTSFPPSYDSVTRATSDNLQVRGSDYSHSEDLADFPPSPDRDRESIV

[4] = test system: capsaicin-induced action potential firing in rat DRG neurons; assay: Multi-electrode array (MEA), capsaicin-induced action potential firing in rat DRG neurons; type: cell-based; settings: cultured rat DRG neurons, 25 nM capsaicin (EC80) co-applied, 37°C, six replicate wells, read-out: IC50 for block of capsaicin-induced action potential firing
Protocol: Action potentials of cultured postnatal day 2 rat DRG neurons (Lonza, Walkersville, MD) were detected using the Maestro multi-well plate-based MEA system (Axion Biosystems, Atlanta, GA). A 48-well MEA plate containing 16 electrodes/well was pre-coated with 10μL 0.1% PEI (Sigma-Aldrich, St. Louis, MO) in borate buffer (50mM boric acid (Fisher Scientific, Waltham, MA), 12mM sodium tetraborate (Sigma-Aldrich), pH 8.4). The plate was incubated at 37°C for 2h, washed 3-times with 200μL sterile ddH2O and then air dried. Next, 10μL of 20μg/mL laminin (Sigma) in Primary Neural Basal Medium (PNBM) (Lonza) was spotted over the PEI-treated electrode surface and incubated for 2h at 37°C. Laminin was removed and immediately replaced with 10μL/well of 7x10^6 cells/mL rat DRGs in PNBM. […] Baseline spontaneous firing was recorded for approximately 1 min. Twenty-five μL of PNBM, 325nM capsaicin (MP Biomedicals, 25nM final, EC80) in PNBM, or 325nM capsaicin plus test compound was then added, and action potentials were continuously recorded for another 2 min with six replicate wells used per condition. MEA data were analyzed using Axion Integrated Studio AxIS2.1 (Axion Biosystems) and GraphPad Prism version 7.02 for Windows (GraphPad Software, La Jolla, CA). […]

[5] = test system: mechanically-induced C-fiber action potential firing; parameters: species or system mouse
Protocol: Male C57BL/6 mice (Charles River Laboratories, San Diego, CA) between 2–3 months old (136 total mice used in study) were housed under standard temperature conditions (22–24°C) and illumination (12-hour light/dark cycle with lights on at 6:30 AM) with ad libitum access to fresh water and food. Mice were euthanized by CO2 followed by cervical dislocation. Experimental procedures for mouse skin-saphenous nerve studies were conducted as previously described with the use of 0.1% BSA (Acros) in the bath solution to decrease non-specific loss of peptide to chamber components [32]. Briefly, the saphenous nerve and skin from the left medial dorsum of the hind paw were dissected and mounted in a custom-made organ bath chamber. The proximal saphenous nerve end was passed through a hole into a separate recording chamber, desheathed and teased into fine fibers for extracellular recording. Mechanical responses were evoked by square force waves using a mechanical stimulator before and following peptide application to a small area of the corium (dermis) side of the skin in a custom-made stainless steel ring. Recording and analysis of C-fiber-mediated action potentials were performed in a blinded manner with respect to peptide treatment. […]

[6] = biological target: human NaV1.7 (Homo sapiens, UniProt Q15858); assay: Manual whole cell patch clamp, human NaV1.7; type: cell-based
[7] = biological target: human NaV1.2 (Homo sapiens, UniProt Q99250); assay: Manual whole cell patch clamp, human NaV1.2; type: cell-based; settings: 20% channel inactivation, n = 2–4 cells per data point
Protocol: as §1
(§2) Fig 5 Selectivity of AM-8145 for human NaV channels in heterologous cells and native NaV currents in mDRG neurons. A. Concentration response curves for TTX-S channels including NaV1.1-NaV1.4, NaV1.6-NaV1.7 and mDRG TTX-S. IC50 values with fold-selectivity compared to NaV1.7 are listed in parenthesis. AM-8145 was 30- to 120-fold selective for NaV1.7 over NaV1.1-NaV1.4 and NaV1.6. B. Concentration response curves for TTX-R channels including NaV1.5, NaV1.8 and mDRG TTX-R. AM-8145 was over 1,700-fold selective for NaV1.7 over NaV1.5, NaV1.8 and mDRG TTX-R. Curves in A and B were derived from whole cell patch clamp experiments. Data are presented as mean ± SEM with n = 2–4 cells per data point. C. Representative current traces for TTX-S channels before (black) and after (red) 10 nM AM-8145 addition. […]

[8] = biological target: T1, human NaV1.4; assay: Manual whole cell patch clamp, human NaV1.4; type: cell-based; settings: 20% channel inactivation, n = 2–4 cells per data point
Protocol: as §1, §2

[9] = biological target: T2, human NaV1.5; assay: in vitro; type: cell-based
Protocol: as §1, §2

[10] = biological target: T3, human NaV1.8 (Homo sapiens, UniProt Q9Y5Y9); assay: Manual whole cell patch clamp, human NaV1.8; type: cell-based; settings: 20% channel inactivation
T3 construct: expressed in transfected cells
Protocol: as §1, §2

[11] = biological target: T4, native TTX-R NaV1.8 channels in mouse DRG neurons (Mus musculus, UniProt Q6QIY3); assay: Manual whole cell patch clamp, native TTX-R NaV channels in mouse DRG neurons; type: cell-based; settings: 20% channel inactivation
T4 construct: endogenous in cells; host or cells: dissociated mouse DRG neurons
Protocol: as §1, §2

[12] = biological target: T5, wild-type NaV1.7 (Homo sapiens, UniProt Q15858); assay: IWQ chimera mapping, wild-type NaV1.7; type: cell-based; settings: IWQ platform; mean ± SEM
T5 construct: expressed in transfected cells; host or cells: BacMam transduced U2-OS cells
Protocol: as §1
(§3) Given the lack of robust bioactivity of AM-8145 on NaV1.5, we evaluated AM-8145 functional block on a battery of human NaV1.7-NaV1.5 chimeric channels, in which individual voltage sensor domains (transmembrane domains S1-S4 of domains I-IV) or the entire pore domain (transmembrane domains S5-S6 of domains I-IV) of NaV1.7 were inserted into the NaV1.5 backbone.
(§4) Fig 4 AM-8145 maps to the second voltage sensor domain on hNaV1.7. Potency of AM-8145 inhibition of wild-type NaV1.7, wild-type NaV1.5, or chimeric NaV1.7/NaV1.5 channels (red illustrates NaV1.7 sequence and gray illustrates NaV1.5 sequence) on the IWQ platform (mean ± SEM). D = “Domain”; S = “Sensor” corresponding to transmembrane segments 1–4; P = “Pore” corresponding to transmembrane segments 5–6. […]

[13] = test system: NaV1.7/NaV1.5 chimera DIS (first NaV1.7 voltage-sensor domain in NaV1.5 backbone); assay: IWQ chimera mapping, chimera DIS; type: cell-based, human; settings: IWQ platform; BacMam transduced U2-OS cells
Protocol: as §1, §3, §4

[14] = test system: NaV1.7/NaV1.5 chimera DIIIS (third NaV1.7 voltage-sensor domain in NaV1.5 backbone); assay: IWQ chimera mapping, chimera DIIIS; type: cell-based, human; settings: IWQ platform; BacMam transduced U2-OS cells
Protocol: as §1, §3, §4

[15] = test system: NaV1.7/NaV1.5 chimera DIVS (fourth NaV1.7 voltage-sensor domain in NaV1.5 backbone); assay: IWQ chimera mapping, chimera DIVS; type: cell-based, human; settings: IWQ platform; BacMam transduced U2-OS cells
Protocol: as §1, §3, §4

[16] = biological target: wild-type NaV1.5 (Homo sapiens, UniProt Q14524); assay: IWQ chimera mapping, wild-type NaV1.5; type: cell-based; parameters: expressed in transfected cells; host or cells: BacMam transduced U2-OS cells; settings: IWQ platform
Protocol: as §1, §3, §4

[17] = test system: TTX-S sodium channels in rat DRG neurons; settings: cited from earlier work
[18] = test system: TTX-R sodium channels in rat DRG neurons; settings: cited from earlier work

COc1cc(-c2cc(F)cc(Cl)c2)c(F)cc1-n1c(=O)ccc2cc(S(=O)(=O)Nc3ccon3)ccc21 [AMG8379]
C-fiber inhibition [1]: 60%

C#CC[C@@H]1NC(=O)[C@@H]2CSSC[C@H](NC(=O)[C@H](Cc3ccc(O)cc3)NC(=O)[C@@H](N)CC#N)C(=O)N[C@@H](CCC(N)=O)C(=O)N[C@@H](CCCCN)C(=O)N[C@@H](Cc3c[nH]c4ccccc34)C(=O)N[C@@H](CCCC)C(=O)N[C@@H](Cc3c[nH]c4ccccc34)C(=O)N[C@@H]([C@@H](C)O)C(=O)N[C@H]3CSSC[C@H](NC(=O)[C@H](CCCNC(=N)N)NC(=O)[C@H](CC(C)C)NC(=O)CNC1=O)C(=O)N[C@@H](CCCCN)C(=O)N[C@@H](CC(C)C)C(=O)N[C@@H](Cc1c[nH]c4ccccc14)C(=O)N[C@H](C(=O)N[C@@H](CCCNC(=N)N)C(=O)N[C@@H](CCCCN)C(=O)N[C@@H](CCC(=O)O)C(=O)N[C@H](C(N)=O)[C@@H](C)CC)CSSC[C@H](NC(=O)[C@H](C)NC(=O)[C@H](CCCNC(=N)N)NC(=O)[C@H](CCCCN)NC(=O)[C@H](CO)NC(=O)[C@H](CC(=O)O)NC3=O)C(=O)N2 [AM-0422, CyA-[Nle6;Pra17;Glu28]JzTx-V(1–29)]
IC50 [2]: 103 nM
IC50 ([3]; human): 966 nM
IC50 [4]: 21.1 ± 5.7 nM
IC50 [5]: 880 nM

C#CC[C@H](N)C(=O)N[C@@H](Cc1ccc(O)cc1)C(=O)N[C@H]1CSSC[C@@H]2NC(=O)[C@@H]3CSSC[C@@H](C(=O)N[C@@H](CCCNC(=N)N)C(=O)N[C@@H](CCCCN)C(=O)N[C@@H](CCC(=O)O)C(=O)N[C@H](C(N)=O)[C@@H](C)CC)NC(=O)[C@H](Cc4c[nH]c5ccccc45)NC(=O)[C@H](CC(C)C)NC(=O)[C@H](CCCCN)NC(=O)[C@H](CSSC[C@H](NC(=O)[C@H]([C@@H](C)O)NC(=O)[C@H](Cc4c[nH]c5ccccc45)NC(=O)[C@H](CCCC)NC(=O)[C@H](Cc4c[nH]c5ccccc45)NC(=O)[C@H](CCCCN)NC(=O)[C@H](CCC(N)=O)NC1=O)C(=O)N[C@@H](CC(=O)O)C(=O)N[C@@H](CO)C(=O)N[C@@H](CCCCN)C(=O)N[C@@H](CCCNC(=N)N)C(=O)N[C@@H](C)C(=O)N3)NC(=O)[C@H](CCCNC(=N)N)NC(=O)[C@H](CC(C)C)NC(=O)CNC(=O)[C@H](CCC(=O)O)NC2=O [AM-8145, Pra-[Nle6;Glu28]JzTx-V(1–29)]
selectivity for NaV1.7 over NaV1.4 ([2]; PX platform IC50 ratio): 300 fold
IC50 [2]: 145 nM
IC50 [3]: 3000 nM
selectivity ratio ([3]; human, PX platform IC50 ratio, read-out: selectivity for NaV1.7 over NaV1.5): 6000
selectivity over human TTX-R channels (NaV1.5, NaV1.8) and native TTX-R channels in mouse DRG neurons ([6]; manual patch clamp IC50 ratios): over 1,000 fold
selectivity over other human TTX-S Nav channels (NaV1.1, NaV1.2, NaV1.3, NaV1.4, NaV1.6) ([6]; manual patch clamp IC50 ratios): 30- to 120 fold
IC50 ([6]; manual patch clamp, voltage protocol with 20% of channels inactivated): 0.58 nM
IC50 [7]: 43.5 nM
IC50 [8]: 71 nM
selectivity ratio ([9]; manual patch clamp IC50 ratio, read-out: fold-selectivity compared to NaV1.7, NaV1.5): > 1700
IC50 ([9]; manual patch clamp, 20% channel inactivation): > 1000 nM
IC50 [10]: > 1000 nM
IC50 [11]: > 1000 nM
IC50 [12]: 50 ± 10 nM
IC50 [13]: > 3000 nM
IC50 [14]: > 3000 nM
IC50 [15]: > 3000 nM
IC50 [16]: > 3000 nM

JzTx-V(1–29) [reference compound]
hNaV1.7 current blocked [6]: 83 ± 2% and 83 ± 6%
reversal of NaV1.7 block by high frequency strong depolarizations to +100 mV [6]: partially reversed
IC50 [17]: 28 nM
IC50 [18]: 30 nM
